Assay results as given in patent publication US6423703B1, “Use of a porphyrin for producing a medicine reducing the number of eosinophils” (Sephra S.A.R.L., priority 1998, dated 2002).
“Also recorded” adds a separate entry of the source. Like-named read-outs stand apart in the source and are kept apart here.

How the values were obtained:
cerebral ischemia = details: i.p. 50 mg/kg, 24 hrs, adult rats, cited from earlier work
[1] = test system: intestinal, splenic and hepatic hemoxygenesis; details: Vrema et al, 1988; p.o. 25 mg/kg; 6 hrs; new-born and adult rats; cited from earlier work
neonatal jaundice [2] = details: Rodgers et al, 1996; i.p. 25 mg/kg; 21 days; new-born rats; cited from earlier work
eosinophils [3] = test: TUNEL method, DNA fragmentation in situ in eosinophils; type: cell-based, human; details: IL-5 (lpM) and ZnPP-IX (10 μM); 48 hours
Experimental: The TUNEL method makes it possible to visualise the apoptotic nuclei containing the fragmented DNA. Its assumption rests on the enzymatic fixation of a fluorescent marker (Fluoresceine-12-dUTP) at the free extremities of the DNA (3′-OH DNA). This technique consists of the cells in each well being cytocentrifuged then fixed by formaldehyde solution at 4% (25 min at 4° C.). After washing, the preparations are made permeable by a solution of Triton X-100 0.2% (5 min at 20° C.). The cells are incubated (1 hr at 37° C.) in the presence of a solution containing fluoresceine-12-dUTP and the enzyme TdT (terminal deoxynucleotidal transferase). The reaction is […] in a stopping solution. After mounting under a coverglass, the preparation is visualized under the fluorescence microscope (Apoptosis Detection System Fluorescein. Promega, Madison, Wis., USA).
In the presence of IL-5 and the control solution, there is no marking of the nuclei.

neonatal jaundice [4] = details: Rodgers et al, 1990; i.v. 25 mg/kg; 26 hrs; Rhesus monkeys (new-born); cited from earlier work
[5] = −20° C., protected from light and humidity; cited from earlier work
[6] = literature in vivo studies; rats, mice, monkeys; i.v., i.p., sub-cutaneous; cited from earlier work
steroidogenesis = details: Trakshel et al, 1992; s.c. 31 mg/kg (2x −4j); 7 days; rats; cited from earlier work
human eosinophils = test: Apoptosis and survival of purified human eosinophils in culture (cytology, blue trypan); type: cell-based; details: for Apoptosis of eosinophils (percentage of apoptotic eosinophils): ZnPP-IX 10 μM, IL-5 10 pM where present, RPMI 1640, average of three experiments; for Number of apoptotic cells: in the presence of IL-5
Experimental: A leukocyte-rich suspension is obtained after sedimentation of whole blood, anticoagulated in the presence of dextran T500 (4.5%). 35 ml of aliquots are added to 15 mi of Ficoll. After centrifugation (30 min, 1000×g) the mononucleated cells at the interface are eliminated. The pellet which contains neutrophils, eosinophils and the corpuscles is washed and subjected to an osmotic shock in order to eliminate the corpuscles. The magnetic cellular separation system (MACS; Miltenyi Biotec) is used to purify the eosinophils by negative selection [Hansel et al, 1991, J. Immunol. Meth. 145: 105-110]. Magnetic particles anti-CD16 (1 μl/1×10^6 cells) are added to the suspension of neutrophils and eosinophils at 4° C. and kept at this temperature for 40 minutes with several placement gain in solution. The suspension is then added at the summit of the separation column in the presence of a magnetic field, the tap open at the base. 30 ml of PBS/FCS is passed through the column and the effluent is recovered. The magnetically marked cells (neutrophils) remain in the column; the unmarked cells (eosinophils) are recovered in the effluent and washed. PBS=Phosphate buffered saline FCS=Foetal calf serum
The freshly purified eosinophils are again placed in suspension (1.5-3×10^5 cells per ml) in RPMI 1640 (Gibco BRL) supplemented with 0.1 mM non essential amino acids, 100 U/ml of penicillin, 10 μg of streptomycine, 10 mM of HEPES, 2 mM of glutamine and 10% FCS. The aliquots of 160 μl of cellular suspension are deposited in each of the wells of a 96 well tray (Costar) containing 20 μl of IL-5 as survival factor. Twenty μl of the substance to be studied in a precise concentration or 20 μl of the medium on its own as a control are deposited in the corresponding wells. The cellular viability and the percentage of apoptotic eosinophils are counted at 24 hrs and 48 hrs with the aid of the methods below.
Blue trypan makes it possible to evaluate cellular viability. The cellular suspension is added to an equal volume of blue trypan at 0.1% in PBS. The abso!ute number of cells excluding the blue trypan (=“living” cells) per unit volume is obtained by counting the cells in a hemocytometer (Mallassez).
Cytology: makes it possible to visualise the morphological modification of the eosinophils during apoptosis in vitro. The cellular suspension is cyto-centrifuged then the strips are coloured (kit RAL 555, Prolabo). The percentage of apoptotic cells is established by optical microscope according to their characteristic morphology (pyknotic nucleus with condensed chromatine or without a nucleus, reduction in the cells diameter, cytoplasmic condensation). The freshly isolated eosinophils from the blood circulation have a characteristic morphology in optical microscopy: a granular cytoplasm coloured red-orange by eosin and a very often bivobed nucleus. In the absence of survival factors such as IL-5, IL-3 or GM-CSF, the first morphological signs of apotosis of the eosinophils appear. The chromatin condenses and the nucleus of the eosinophil takes on a pyknotic appearance. This pyknotic appearance of the nucleus, standard in the course of apoptosis, is however rarely observed in the eosinophil, perhaps because of its brevity. Another morphological sign characteristic of apoptosis is the reduction of cellular volume which is very marked in the eosinophil (Beauvais et al, 1995, J, Leukoc. Biol. 57: 851-855). After 48 hours of incubation, the nuclear structures have disappeared in the majority of eosinophils which now appear in the form of anucleated vesicles.

neonatal jaundice [7] = details: Qato et Maines, 1985; s.c. 25 mg/kg; 12 days; Rhesus monkeys and cynomolgus; cited from earlier work
[8] = test system: hyperbilirubinemia due to iatrogenic hemolysis; details: Vreman et al, 1990; i.v. 25 mg/kg; 24 hrs; Rhesus monkeys (new-born); cited from earlier work
inflammation = details: Nagai et al, 1992; 30 mg/kg; adult rats and mice; cited from earlier work
[9] = test system: peritoneal hypereosinophilia; test: Ovalbumin-induced peritoneal hypereosinophilia in mice; type: in vivo, Swiss mice; details: 0.1 ml of 1 mM (3.1 mg/kg) intraperitoneal with ovalbumin challenge; 48 hrs; two mice
Experimental: Swiss mice (about 20 g) are immunised sub cutaneously twice (with a 6 day interval) with 100 μg of ovalbumin in 0.4 ml of a suspension at 4 mg/ml of Al(OH)3 in NaCl 0.9%. One week after the second injection, 0.2 ml of ovalbumin at 5 μg/ml of ovalbumin are administered by intraperitoneal injection. The control mice are injected with the vehicle only.
The mice are killed at different times (overdose of ether) and—after dissection —undergo a peritoneal wash with 6ml of NaCl 0.9% (heparinised). After slight massage, the liquid of the wash is collected and the cellular concentration is measured in a hemocytometer. Cytocentrifugation strips are made and coloured by the Wright colorant (kit RAL 555, Prolabo, France). The differential count of mononucleated (monocytes+macrophages+lymphocytes), eosinophil and neutrophil cells is carried out objectively×100 by immersion in oil. During the peritoneal washing of the control mice, the residual cells are essentially macrophages, whereas during the peritoneal washing of mice immunised by ovalbumin, an inflammatory infiltrate with the apparition of polynuclear eosinophils and neutrophils is observed.
The ZnPP-IX is Injected at the same time as the second injection of ovalbumin (OVA). […] The results are represented by FIGS. 4, 5 and 6. Each column represents the average for two mice at 48 hrs.

[10] = Hintz et al, 1990; i.p. 37 mg/kg; 12 hrs; new-born rats; cited from earlier work
eosinophils [11] = details: in vitro; cited from earlier work

C=CC1=C(C)c2cc3[n-]c(cc4[n-]c(cc5nc(cc1n2)C(C)=C5C=C)c(C)c4CCC(=O)O)c(CCC(=O)O)c3C.[Zn+2] [ZnPP-IX, Zinc-Protoporphyrin IX]
Pharmacological effects (cerebral ischemia; Kadoya et al, 1995): Protects from cerebral ischemia | Pharmacological effects (cerebral ischemia; Zhao et al, 1996): Protects from cerebral ischemia | Pharmacological effects (inhibition of intestinal, splenic and hepatic hemoxygenesis) [1]: No inhibitory effect on intestinal, | Pharmacological effects (neonatal jaundice [2]): Reduces neonatal jaundice | Marking of apoptotic nuclei by the TUNEL method (eosinophils [3]): appear marked | Pharmacological effects (neonatal jaundice [4]): Reduces neonatal jaundice | Storage stability [5]: at least 1 year | Toxicity in animals [6]: No toxicity has been reported; also recorded: No harmful effects were revealed | Pharmacological effects (steroidogenesis) (steroidogenesis): No effect on steroidogenesis | Apoptosis of eosinophils (percentage of apoptotic eosinophils) (human eosinophils; 24 hrs): 45 ± 15 | Apoptosis of eosinophils (percentage of apoptotic eosinophils) (human eosinophils; 48 hrs): 99 ± 1 | Activity on the survival and apoptosis of the eosinophils (FIG. 2) (human eosinophils; average of two representative experiments): dosedependant activity | Induction of the apoptosis of eosinophils (human eosinophils; in stronger concentrations of IL5 (10 pM)): induces the apoptosis of eosinophils | Effect on apoptosis of the eosinophils (human eosinophils; in the absence of IL-5): accelerates the apoptosis | Number of apoptotic cells (human eosinophils; 24 hrs): very small | Number of apoptotic cells (human eosinophils; 48 hrs): practically all the cells are apoptotic | Apoptosis of eosinophils (percentage of apoptotic eosinophils) (human eosinophils; time 0): 0 | Pharmacological effects (neonatal jaundice [7]): Reduces neonatal jaundice | Pharmacological effects (hyperbilirubinemia due to iatrogenic hemolysis) [8]: Reduces hyperbilirubinemia due to | Pharmacological effects (inflammation): Anti-inflammatory effect | Inflammatory infiltrate in peritoneal wash [9]: reduces the inflammatory infiltrate | Number of eosinophils in the tissues [9]: large decrease | Pharmacological effects (phototoxicity) [10]: No phototoxic effect

CCN(CC)CC(=O)Nc1c(C)cccc1C [lidocaine]
Survival of eosinophils (eosinophils [11]): reduce the survival of eosinophils

IL-5: Cytokine used as survival factor for the eosinophils in culture
Apoptosis of eosinophils (percentage of apoptotic eosinophils) (human eosinophils; 24 hrs): 2 ± 2 | Apoptosis of eosinophils (percentage of apoptotic eosinophils) (human eosinophils; 48 hrs): 2 ± 1 | Apoptosis of eosinophils (percentage of apoptotic eosinophils) (human eosinophils; time 0): 0
